Experimental data reported in patent publication US7301022B2, “Vanilloid receptor ligands and their use in treatments” (Amgen Inc., priority 2005, dated 2007).
Where a name gives a salt, the structure may show the parent alone.

Row | SMILES | melting point
1 | CC(=O)Nc1nc2c(Oc3cc(-c4ccc(C(F)(F)F)cc4NC(=O)C4CCCCN4C(C)C)ncn3)cccc2s1 (stereo not drawn) [Example 50, N-(2-(6-(2-Acetamidobenzo[d]thiazol-4-yloxy)pyrimidin-4-yl)-5-(trifluoromethyl)phenyl)-1-isopropylpiperidine-2-carboxamide] | 260 °C (dec.)
2 | CC(=O)Nc1nc2c(Oc3cc(-c4ccc(C(F)(F)F)cc4NCc4cncn4Cc4ccccc4)ncn3)cccc2s1 [Example 54, N-(4-(6-(2-((1-Benzyl-1H-imidazol-5-yl)methylamino)-4-(trifluoromethyl)-phenyl)pyrimidin-4-yloxy)benzo[d]thiazol-2-yl)acetamide] | 264 to 264.1 °C
3 | CC(=O)Nc1nc2c(Oc3cc(-c4ccc(C(F)(F)F)cc4NC(=O)C4(C)CCCCN4)ncn3)cccc2s1 (stereo not drawn) [Example 43, N-(2-(6-(2-Acetamidobenzo[d]thiazol-4-yloxy)pyrimidin-4-yl)-5-(trifluoromethyl)phenyl)-2-methylpiperidine-2-carboxamide] | 146.4 to 148.8 °C
4 | CC(=O)Nc1nc2c(Oc3cc(-c4ccc(C(F)(F)F)cc4NC(=O)C4(C)CCCCN4CC(C)C)ncn3)cccc2s1 (stereo not drawn) (as salt: trifluoroacetic acid salt) [Example 44, N-(2-(6-(2-Acetamidobenzo[d]thiazol-4-yloxy)pyrimidin-4-yl)-5-(trifluoromethyl)phenyl)-1-isobutyl-2-methylpiperidine-2-carboxamide trifluoroacetic acid salt] | < 80 °C
5 | CC1CC[C@@H](C(=O)Nc2cc(C(F)(F)F)ccc2-c2cc(Oc3cccc4ccc(N)nc34)ncn2)N1 (mixture of isomers) [Example 48, (2S,5R,S)-N-(2-(6-(2-Aminoquinolin-8-yloxy)pyrimidin-4-yl)-5-(trifluoromethyl)phenyl)-5-methylpyrrolidine-2-carboxamide] | 162.9 to 164 °C
6 | CC1(C)CC(Nc2nc(C(F)(F)F)ccc2-c2cc(Oc3cccc4sc(N)nc34)ncn2)CC(C)(C)N1 (as salt: trifluoroacetic acid salt) [Example 35, 4-(6-(2-(2,2,6,6-Tetramethylpiperidin-4-ylamino)-6-(trifluoromethyl)pyridin-3-yl)pyrimidin-4-yloxy)benzo[d]thiazol-2-amine trifluoroacetic acid salt] | 264 to 265.1 °C
7 | CC(=O)Nc1nc2c(Oc3cc(-c4ccc(C(F)(F)F)nc4NC4CCN(C(C)C)C4)ncn3)cccc2s1 (stereo not drawn) [Example 4, N-(4-(6-(2-(1-Isopropylpyrrolidin-3-ylamino)-6-(trifluoromethyl)pyridin-3-yl)pyrimidin-4-yloxy)benzo[d]thiazol-2-yl)acetamide] | 140 to 141 °C
8 | CC(=O)Nc1nc2c(Oc3cc(-c4ccc(C(F)(F)F)cc4NC(=O)C4CCCCN4CC(C)C)ncn3)cccc2s1 (stereo not drawn) [Example 51, N-(2-(6-(2-Acetamidobenzo[d]thiazol-4-yloxy)pyrimidin-4-yl)-5-(trifluoromethyl)phenyl)-1-isobutylpiperidine-2-carboxamide] | 153.4 to 154.9 °C
9 | CC(=O)Nc1nc2c(Oc3cc(-c4ccc(C(F)(F)F)cc4NC(=O)[C@@H]4CCN4CC(C)C)ncn3)cccc2s1 [Example 38, (2S)-N-(2-(6-(2-Acetamidobenzo[d]thiazol-4-yloxy)pyrimidin-4-yl)-5-(trifluoromethyl)phenyl)-1-isobutylazetidine-2-carboxamide] | 174.4 to 174.9 °C
10 | CC(=O)Nc1nc2c(Oc3cc(-c4ccc(C(F)(F)F)cc4NC(=O)C4CCCCN4CC4CC4)ncn3)cccc2s1 (stereo not drawn) [Example 49, N-(2-(6-(2-Acetamidobenzo[d]thiazol-4-yloxy)pyrimidin-4-yl)-5-(trifluoromethyl)phenyl)-1-(cyclopropylmethyl)piperidine-2-carboxamide] | 212.3 to 213.5 °C
11 | CC(=O)Nc1nc2c(Oc3cc(-c4ccc(C(F)(F)F)nc4NC4CC(C)(C)NC(C)(C)C4)ncn3)cccc2s1 (as salt: trifluoroacetic acid salt) [Example 36, N-(4-(6-(2-(2,2,6,6-Tetramethylpiperidin-4-ylamino)-6-(trifluoromethyl)-pyridin-3-yl)pyrimidin-4-yloxy)benzo[d]thiazol-2-yl)acetamide trifluoroacetic acid salt] | 253.4 to 254.1 °C
12 | CC(=O)Nc1nc2c(Oc3cc(-c4ccc(C(F)(F)F)cc4NC(=O)[C@@H]4CCN4C(C)C)ncn3)cccc2s1 [Example 37, (2S)-N-(2-(6-(2-Acetamidobenzo[d]thiazol-4-yloxy)pyrimidin-4-yl)-5-(trifluoromethyl)phenyl)-1-isopropylazetidine-2-carboxamide] | 198.8 to 199.4 °C
13 | CC(=O)Nc1nc2c(Oc3cc(-c4ccc(C(F)(F)F)cc4NCc4cncn4C)ncn3)cccc2s1 [Example 55, N-(4-(6-(2-((1-Methyl-1H-imidazol-5-yl)methylamino)-4-(trifluoromethyl)-phenyl)pyrimidin-4-yloxy)benzo[d]thiazol-2-yl)acetamide] | 263 to 265.2 °C

Continued, values first:

Row | melting point | SMILES
14 | 111.1 to 113.9 °C | CC(C)CN1CCCCC1C(=O)Nc1cc(C(F)(F)F)ccc1-c1cc(Oc2cccc3ccc(N)nc23)ncn1 (stereo not drawn)
15 | 138 to 139 °C | CC(=O)Nc1nc2c(Oc3cc(-c4ccc(C(F)(F)F)nc4NC4CCN(CC(C)C)C4)ncn3)cccc2s1 (stereo not drawn) [Example 3, N-(4-(6-(2-(1-Isobutylpyrrolidin-3-ylamino)-6-(trifluoromethyl)pyridin-3-yl)pyrimidin-4-yloxy)benzo[d]thiazol-2-yl)acetamide]
16 | 159.3 to 162 °C | CC(=O)Nc1nc2c(Oc3cc(-c4ccc(C(F)(F)F)nc4NCC4CCCCN4C(C)C)ncn3)cccc2s1 (stereo not drawn) [Example 32]
17 | 118 to 118.2 °C | CC(C)CN1CCCCC1CNc1nc(C(F)(F)F)ccc1-c1cc(Oc2cccc3sc(N)nc23)ncn1 (stereo not drawn) [Example 26]
18 | 121.7 to 121.9 °C | CC(=O)Nc1nc2c(Oc3cc(-c4ccc(C(F)(F)F)nc4NCC4CCCCN4CC(C)C)ncn3)cccc2s1 (racemic) [Example 31, N-(4-(6-(2-(((R,S)-1-isobutylpiperidin-2-yl)methylamino)-6-(trifluoromethyl)pyridin-3-yl)pyrimidin-4-yloxy)benzo[d]thiazol-2-yl)acetamide]
19 | > 250 °C | CC(C)CN1CCCCC1C(=O)Nc1cc(C(F)(F)F)ccc1-c1cc(Oc2cccc3[nH]c(=O)c(N)nc23)ncn1 (stereo not drawn) [Example 42, N-(2-(6-(3-Amino-2-oxo-1,2-dihydroquinoxalin-5-yloxy)pyrimidin-4-yl)-5-(trifluoromethyl)phenyl)-1-isobutylpiperidine-2-carboxamide]
20 | 198 °C (dec.) | CC(C)CN1CCC[C@H]1CNc1nc(C(F)(F)F)ccc1-c1cc(Oc2cccc3sc(N)nc23)ncn1 [Example 25]
21 | 166 to 170 °C | CC(C)CN1CCCCC1C(C)(C)Nc1nc(C(F)(F)F)ccc1-c1cc(Oc2cccc3sc(N)nc23)ncn1 (stereo not drawn) [Example 5, 4-(6-(2-(2-(1-Isobutylpiperidin-2-yl)propan-2-ylamino)-6-(trifluoromethyl)pyridin-3-yl)pyrimidin-4-yloxy)benzo[d]thiazol-2-amine]
22 | 98.9 to 101.9 °C | CC(C)CN1CCCCC1CN(C)c1nc(C(F)(F)F)ccc1-c1cc(Oc2cccc3sc(N)nc23)ncn1 (stereo not drawn) [Example 24, 4-(6-(2-(((1-Isobutylpiperidin-2-yl)methyl)(methyl)amino)-6-(trifluoromethyl)pyridin-3-yl)pyrimidin-4-yloxy)benzo[d]thiazol-2-amine]
23 | 211.3 to 213 °C | CC(C)N1CCCCC1CNc1nc(C(F)(F)F)ccc1-c1cc(Oc2cccc3sc(N)nc23)ncn1 (stereo not drawn) [Example 27]
24 | 105.8 to 107.3 °C | CC(=O)Nc1nc2c(Oc3cc(-c4ccc(C(F)(F)F)nc4NC[C@@H]4CCCN4CC(C)C)ncn3)cccc2s1 [Example 30]
25 | 228 to 229 °C | CC(C)CN1CCCCC1CNc1nc(C(F)(F)F)ccc1-c1cc(Oc2cccc3[nH]c(=O)c(N)nc23)ncn1 (stereo not drawn) [Example 6]
26 | 123.2 to 125.4 °C | CC(=O)Nc1nc2c(Oc3cc(-c4ccc(C(F)(F)F)nc4N(C)CC4CCCCN4CC(C)C)ncn3)cccc2s1 (stereo not drawn) [Example 29, N-(4-(6-(2-(((1-isobutylpiperidin-2-yl)methyl)(methyl)amino)-6-(trifluoromethyl)pyridin-3-yl)pyrimidin-4-yloxy)benzo[d]thiazol-2-yl)acetamide]
27 | 93.2 to 96.8 °C | CC(C)CN1CCC[C@H]1CN(C)c1nc(C(F)(F)F)ccc1-c1cc(Oc2cccc3sc(N)nc23)ncn1 [Example 28]
